This test has as its system Anaerobes (Bacteroides fragilis, Clostridium difficile). Kind of test: Agar dilution MIC (Example 11). It is filed as cell-based. As for the experimental part: The susceptibility of anaerobic bacteria was determined by agar dilution using Brucella Agar (BD/BBL; Lot No. 5237692) supplemented with 5 μg/mL hemin (Sigma, St. Louis, Mo.; Lot No. 108K1088), 1 μg/mL Vitamin K1 and 5% (v/v) laked sheep blood (Cleveland Scientific, Bath, Ohio; Lot No. 322799).
Agar Dilution MIC Testing (Anaerobic Bacteria and Gonococci): MIC values for anaerobic bacteria were determined using a reference agar dilution method as described by CLSI (6). Organisms were grown at 35° C. in the Bactron II Anaerobic Chamber (Shel Lab, Cornelius, Oreg.) for approximately 48 hr prior to the assay. Drug dilutions and drug-supplemented agar plates were prepared manually per CLSI (6). The plates were allowed to stand at room temperature for 1 hr to allow the agar surface to dry and pre-reduced for approximately 1 hr in the anaerobe chamber prior to inoculation. Each isolate was suspended to the equivalent of a 0.5 McFarland standard in Brucella broth using a turbidity meter (Dade Behring MicroScan, West Sacramento, Calif.). Each bacterial cell suspension was then diluted 1:10 in Brucella broth and transferred to wells in a stainless steel replicator block which was used to inoculate the test plates. The prongs on the replicator deliver approximately 1-2 μl of inoculum to an agar surface. The resulting inoculum spots contained approximately 1×10^5 CFU/spot. After the inoculum dried, the inoculated drug-supplemented agar plates and no drug growth control plates were incubated at 35° C. for 42-48 hr in the anaerobe chamber. The MIC was read per CLSI guidelines (6).
On the technique in general: In agar dilution the substance is mixed into plates at graded concentrations.

This is an account of results in patent US20230124862A1, “BISMUTH THIOL COMPOUNDS AND COMPOSITIONS AND METHODS OF TREATING MICROBIAL CO-INFECTIONS” (Microbion Corporation, priority 2020, published 2023).

A word on the MIC: it is the lowest concentration that inhibits growth of the organism.

Read-outs that look alike come from different tables or passages of the source.

As for `CC(S)C(C)S.[Bi]` (stereo not drawn) [BisBDT, bismuth-2,3-butanedithiol], the MIC by setting is: (Bacteroides fragilis, ATCC25285, B. fragilis MMX 123 (ATCC 25285), QC, read-out: MIC) 1 µg/mL; (Bacteroides fragilis, agar dilution, read-out: MIC values) 1 to 4 µg/mL; (C. difficile MMX 5680 (NCTC 13336), ribotype 027, CC^1 MET^R, read-out: MIC) 2 µg/mL; (C. difficile MMX 8272, ribotype 255, CC^1, read-out: MIC) 2 µg/mL; (C. difficile MMX 8279, ribotype 005, CC^R, read-out: MIC) 2 µg/mL; (C. difficile MMX 8281, ribotype 010, CC^R, read-out: MIC) 2 µg/mL.
